Columns and labels:
ST8814 [1] = experiment: relative IC50 (inflection point of fitted dose-response curve, CellTiter-Glo viability, 72 h; top asymptote may be below 50% inhibition); higher = less potent
Procedure, shortened: (§1)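 MPNST cell lines and primary human Schwann cells (750–1000 cells per well) went into 384-well plates preprinted with each compound at five concentrations in 10-fold steps. Plates were incubated 72 h at 37 °C, 5% CO2. Viability was read as CellTiter-Glo ATP luminescence, scaled between vehicle and positive-control wells, with duplicates averaged where present. Percent inhibition is at the top concentration; drug sensitivity score and relative IC50 (censored at top concentration) come from four-parameter logistic fits.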

HSC2 [2] = experiment: as above
Procedure, shortened: as §1

HS-Sch-2 = experiment: as above
Procedure, shortened: as §1

HSC1 [3] = experiment: as above
Procedure, shortened: as §1

YST-1 = experiment: as above
Procedure, shortened: as §1

STS26T [4] = experiment: as above
Procedure, shortened: as §1

S462 = experiment: as above
Procedure, shortened: as §1

HS-PSS [5] = experiment: as above
Procedure, shortened: as §1

ST8814 [6] = experiment: relative IC50 (inflection point of fitted dose-response curve, CellTox-Green cytotoxicity, 72 h; top asymptote may be below 50%); higher = less potent
Procedure, shortened: (§2)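 MPNST cell lines and primary human Schwann cells were incubated 72 h at 37 °C in 384-well plates holding five 10-fold compound dilutions. CellTox-Green was added before seeding at a final 1:1000 dilution and reported fluorescence from DNA released by disrupted cells. Signals were scaled to vehicle and positive-control wells, and cultures failing plate quality control were dropped. Drug sensitivity score and relative IC50 come from four-parameter logistic fits, with IC50 censored at the top concentration.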

HSC1 [7] = experiment: as above
Procedure, shortened: as §2

S1507-2 [8] = experiment: as above
Procedure, shortened: as §2

STS26T [9] = experiment: as above
Procedure, shortened: as §2

HS-PSS [10] = experiment: as above
Procedure, shortened: as §2

S1507-2 [11] = experiment: relative IC50 (inflection point of fitted dose-response curve, CellTiter-Glo viability, 72 h; top asymptote may be below 50% inhibition); higher = less potent
Procedure, shortened: as §1

HSC2 [12] = experiment: relative IC50 (inflection point of fitted dose-response curve, CellTox-Green cytotoxicity, 72 h; top asymptote may be below 50%); higher = less potent
Procedure, shortened: as §2

Compound | relative IC50 (ST8814 [1]) [µM] | relative IC50 (HSC2 [2]) [µM] | relative IC50 (HS-Sch-2) [µM] | relative IC50 (HSC1 [3]) [µM] | relative IC50 (YST-1) [µM] | relative IC50 (STS26T [4]) [µM] | relative IC50 (S462) [µM] | relative IC50 (HS-PSS [5]) [µM] | relative IC50 (ST8814 [6]) [µM] | relative IC50 (HSC1 [7]) [µM] | relative IC50 (S1507-2 [8]) [µM] | relative IC50 (STS26T [9]) [µM] | relative IC50 (HS-PSS [10]) [µM] | relative IC50 (S1507-2 [11]) [µM] | relative IC50 (HSC2 [12]) [µM]
O=c1[nH]c(=O)n([C@H]2C[C@H](O)[C@@H](CO)O2)cc1F [Floxuridine] | 0.123 | 0.127 | 0.173 | 0.752 | 0.101 | 0.0379 | 0.0534 | 1.48 | 0.729 | 3.23 | > 10 | 0.253 | > 10 | – | –
Cc1ccc(-c2cc(C(F)(F)F)nn2-c2ccc(S(N)(=O)=O)cc2)cc1 [Celecoxib] | > 10 | > 10 | > 10 | – | > 10 | > 10 | > 10 | > 10 | > 10 | > 10 | > 10 | > 10 | > 10 | > 10 | > 10
C#Cc1cccc(Nc2ncnc3cc(OCCOC)c(OCCOC)cc23)c1 [Erlotinib] | 3.13 | 2.31 | 1.55 | 2.36 | 1.47 | 2.06 | 2.31 | 2.1 | > 10 | > 10 | > 10 | > 10 | > 10 | – | > 10
CC(C)C(=O)Nc1ccc([N+](=O)[O-])c(C(F)(F)F)c1 [Flutamide] | > 10 | > 10 | > 10 | – | > 10 | – | > 10 | – | > 10 | > 10 | > 10 | > 10 | > 10 | > 10 | > 10
CN[C@@H](C)C(=O)N[C@H]1CN(C(=O)CC(C)C)CC[C@H]2CC[C@@H](C(=O)NC(c3ccccc3)c3ccccc3)N2C1=O [AT-406] | > 10 | > 10 | – | > 10 | > 10 | 0.0972 | > 10 | – | > 10 | > 10 | 0.0583 | 0.0199 | > 10 | – | > 10
CS(=O)(=O)c1ccc(C2=C(c3ccccc3)C(=O)OC2)cc1 [Rofecoxib] | > 10 | > 10 | > 10 | > 10 | > 10 | > 10 | > 10 | > 10 | > 10 | > 10 | > 10 | > 10 | > 10 | – | > 10
CC(C)NC[C@@H](C(=O)N1CCN(c2ncnc3c2[C@H](C)C[C@H]3O)CC1)c1ccc(Cl)cc1 [GDC-0068] | – | > 10 | – | – | – | 0.544 | – | – | > 10 | – | > 10 | > 10 | – | 2.06 | > 10
O=C(Nc1cccnc1)N1CCC(Cc2cccc(Oc3ccc(C(F)(F)F)cn3)c2)CC1 [PF-3845] | – | 1.43 | 3.07 | 1.52 | 3.52 | – | – | 1.41 | > 10 | > 10 | > 10 | > 10 | > 10 | > 10 | –
CCCCC/C=C/C=C1/C(=O)C=C[C@@H]1C/C=C\CCCC(=O)O [15D-PGJ2] | > 0.8 | > 0.8 | – | > 0.8 | > 3 | > 0.8 | > 0.8 | > 3 | > 0.8 | > 0.8 | > 0.8 | > 0.8 | > 3 | – | > 0.8
COc1cc2c(N3CCN(C(=O)Nc4ccc(OC(C)C)cc4)CC3)ncnc2cc1OCCCN1CCCCC1 [Tandutinib] | > 1 | > 1 | > 1 | > 1 | > 1 | > 1 | > 1 | – | > 1 | > 1 | > 1 | > 1 | > 1 | – | > 1
CC(C)(C)c1nc(-c2cccc(NS(=O)(=O)c3c(F)cccc3F)c2F)c(-c2ccnc(N)n2)s1 [Dabrafenib] | 0.968 | 0.0633 | – | 0.22 | – | 0.0728 | 0.668 | 1 | > 2.5 | > 2.5 | > 2.5 | > 2.5 | > 2.5 | – | > 2.5
CC1(C)NC(=O)N(c2ccc([N+](=O)[O-])c(C(F)(F)F)c2)C1=O [Nilutamide] | > 10 | > 10 | – | – | > 10 | > 10 | > 10 | – | > 10 | > 10 | > 10 | > 10 | > 10 | > 10 | > 10
CCn1c(C(=O)N(C2CC2)C2CC2)cc2c3c(ncn3C)c(Nc3cc(C)n(C)n3)nc21 | > 10 | > 10 | – | > 10 | 1.59 | > 10 | > 10 | > 10 | > 10 | > 10 | > 10 | > 10 | > 10 | – | > 10
C[C@]12C=CC(=O)C=C1CC[C@@H]1[C@@H]2C(=O)C[C@@]2(C)[C@H]1CC[C@]2(O)C(=O)CO [Prednisone] | > 10 | > 10 | – | > 10 | > 10 | > 10 | > 10 | > 10 | > 10 | > 10 | > 10 | > 10 | > 10 | – | > 10
CC(O)(CS(=O)(=O)c1ccc(F)cc1)C(=O)Nc1ccc(C#N)c(C(F)(F)F)c1 (stereo unspecified) [Bicalutamide] | > 10 | > 10 | – | – | > 10 | – | – | – | > 10 | > 10 | > 10 | > 10 | > 10 | > 10 | > 10
N[C@@H](CSC(c1ccccc1)(c1ccccc1)c1ccccc1)C(=O)O [S-trityl-L-cysteine] | > 40 | > 40 | – | – | – | – | – | – | > 40 | > 40 | > 40 | > 40 | – | > 40 | > 40
O=C(O)CCCc1ccc(N(CCCl)CCCl)cc1 [Chlorambucil] | > 10 | – | > 10 | – | – | > 10 | > 10 | > 10 | > 10 | > 10 | > 10 | > 10 | > 10 | > 10 | > 10
O=C1CN2Cc3c(ccc(Cl)c3Cl)N=C2N1 [Anagrelide] | – | 0.134 | 0.144 | – | > 10 | > 10 | > 10 | > 10 | > 10 | > 10 | > 10 | > 10 | > 10 | > 10 | –
O=P1(NCCCl)OCCCN1CCCl (stereo unspecified) [Ifosfamide] | > 10 | > 10 | > 10 | > 10 | – | > 10 | > 10 | > 10 | > 10 | > 10 | > 10 | > 10 | > 10 | – | > 10
Cc1nc(C(=O)NCC(=O)O)c(O)c2ccc(Oc3ccccc3)cc12 [FG-4592] | > 10 | – | 2.47 | – | > 10 | > 10 | > 10 | 1.21 | > 10 | > 10 | > 10 | > 10 | > 10 | > 10 | > 10
CC1(C)CCC(c2ccc(Cl)cc2)=C(CN2CCN(c3ccc(C(=O)NS(=O)(=O)c4ccc(N[C@H](CCN5CCOCC5)CSc5ccccc5)c(S(=O)(=O)C(F)(F)F)c4)cc3)CC2)C1 [Navitoclax] | – | 1.12 | 0.547 | – | 0.471 | – | – | > 10 | 1.5 | 1.54 | 0.608 | – | > 10 | 0.582 | 0.983
N#Cc1ccc(COC[C@H]2O[C@@H](n3c(NCc4ccc(Cl)c(Cl)c4)nc4c(N)ncnc43)[C@H](O)[C@@H]2O)cc1 | > 10 | 0.261 | > 10 | 0.784 | 1.24 | 1.1 | – | – | > 10 | > 10 | > 10 | – | > 10 | > 10 | > 10
CCS(=O)(=O)c1cccc(-c2cc(C(=O)NC3CCN(C)CC3)c(C)c3[nH]c4ncc(C)cc4c23)c1 [TAK-901] | 0.267 | 0.0725 | 0.327 | 0.111 | 0.0633 | 0.112 | 0.122 | 0.15 | 0.134 | – | > 1 | 0.0623 | > 1 | – | 0.183
CCNC(=O)CCC/C=C\C[C@@H]1[C@@H](/C=C/[C@@H](O)CCc2ccccc2)[C@H](O)C[C@@H]1O [Bimatoprost] | > 5.5 | > 5.5 | > 5.5 | > 5.5 | > 5.5 | > 5.5 | – | > 5.5 | > 5.5 | > 5.5 | > 5.5 | > 5.5 | > 5.5 | > 5.5 | > 5.5
CC[C@H](CO)Nc1nc(NCc2ccccc2)c2ncn(C(C)C)c2n1 [Seliciclib] | > 10 | 3.99 | – | – | > 10 | – | 3.61 | 1.67 | > 10 | > 10 | > 10 | – | – | > 10 | > 10
Oc1ccc2c(c1)CC[C@H](c1ccccc1)[C@@H]2c1ccc(OCCN2CCCC2)cc1 [Lasofoxifene] | > 1 | > 1 | > 1 | > 1 | > 1 | > 1 | – | – | > 1 | > 1 | > 1 | > 1 | > 1 | > 1 | > 1
COC(=O)c1ccc2c(c1)NC(=O)/C2=C(\Nc1ccc(N(C)C(=O)CN2CCN(C)CC2)cc1)c1ccccc1 [Nintedanib] | > 10 | > 10 | 3.71 | > 10 | 1.12 | > 10 | > 10 | 3.97 | > 10 | > 10 | > 10 | > 10 | – | – | > 10
Clc1ccc(Nc2nnc(Cc3ccncc3)c3ccccc23)cc1 [Vatalanib] | > 10 | – | – | > 10 | – | > 10 | – | – | > 10 | > 10 | > 10 | > 10 | > 10 | > 10 | > 10
